For assay [1], the target named is T1, glucocorticoid/Heliothis ecdysone chimeric receptor (UniProt O18473+P04150).
T1 sequence (P04150+O18473 with tags, fused parts or gaps): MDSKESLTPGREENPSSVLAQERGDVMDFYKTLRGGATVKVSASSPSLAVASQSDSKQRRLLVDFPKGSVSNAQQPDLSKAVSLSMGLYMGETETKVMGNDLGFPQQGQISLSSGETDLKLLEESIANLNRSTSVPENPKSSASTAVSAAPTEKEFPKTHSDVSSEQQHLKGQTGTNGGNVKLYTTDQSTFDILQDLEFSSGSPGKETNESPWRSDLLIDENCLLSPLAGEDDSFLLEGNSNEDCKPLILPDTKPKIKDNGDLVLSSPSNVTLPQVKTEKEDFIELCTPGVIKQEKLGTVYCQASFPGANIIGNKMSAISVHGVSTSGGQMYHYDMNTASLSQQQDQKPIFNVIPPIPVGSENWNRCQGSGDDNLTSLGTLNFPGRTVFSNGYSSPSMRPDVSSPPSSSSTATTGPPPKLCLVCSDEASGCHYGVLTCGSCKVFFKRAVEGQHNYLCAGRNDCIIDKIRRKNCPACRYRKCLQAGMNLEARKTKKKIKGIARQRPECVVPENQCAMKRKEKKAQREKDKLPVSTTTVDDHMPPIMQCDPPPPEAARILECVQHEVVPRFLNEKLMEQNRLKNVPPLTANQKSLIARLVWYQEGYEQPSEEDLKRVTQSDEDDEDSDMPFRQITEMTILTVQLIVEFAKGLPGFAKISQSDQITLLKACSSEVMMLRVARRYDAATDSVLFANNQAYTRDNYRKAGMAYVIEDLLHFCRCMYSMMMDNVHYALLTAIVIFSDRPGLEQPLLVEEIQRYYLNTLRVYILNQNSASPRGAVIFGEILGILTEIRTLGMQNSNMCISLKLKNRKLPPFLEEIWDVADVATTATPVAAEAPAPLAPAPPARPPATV
Briefly: CHO cells transfected with pcDNA3GRHEcR and pSWGRE4 (β-galactosidase reporter). The class given is cell-based, Heliothis virescens. Further details: expressed in transfected cells; host or cells: CHO-K1 (A7). The note with it: co-transformed CHO cells (FIG. 27). The procedure: Transfections of mammalian cell lines (CHO-K1 Chinese hamster ovary) ATCC number CCL61 or cos-1 (Monkey cell line) were performed using either calcium phosphate precipitation (Gorman, Chapter 6 of “DNA cloning: a practical approach. Vol 2 D. M. Glover ed/.(1985) IRL Press, Oxford) or using LipofectAMINE (Gibco BRL Cat. No. 18324–012, following manufacturer's instructions). […] 293 cells were transfected using analogous methods.
The mammalian expression vector used in this experiment was pcDNA3 (Invitrogen). The GRHEcR 2.7 kb BamHI DNA fragment (isolated from pMF6GRHEcR) was introduced into the pcDNA3 BamHI vector. The recombinants were oriented by restriction enzyme mapping. The DNA sequence of the junctions was determined to ensure correct orientation and insertion (pcDNA3GRHEcR, FIG. 25).
The reporter plasmid for mammalian cell system was produced by taking pSWBGAL plasmid and replacing the CRESW SpeI/ClaI fragment for a synthetic 105 bp DNA fragment containing 4 copies of the glucocorticoid response element (GRE) and flanked by SpeI at the 5′ end and AflII at the 3′ end.
The two oligonucleotides were purified annealed and ligated to pSWBGAL SpeI/AflII to produce pSWGRE4 (FIG. 26).
A screen was carried out using CHO cells transiently transfected with both pSWGRE4 (reporter) and pcDNA3GRHEcR (effector) constructs. […]

In assay [2] the target is chimeric glucocorticoid VP16/Heliothis ecdysone receptor (UniProt O18473+P04150, DEL153-392/E478D/INS403[…]/INS405[…]/M398P/P396A/P400T/P406S/R399P/S397A/Y393A). Briefly: GUS levels in transgenic tobacco progeny containing pES3 and pES4. The class given is in vivo, Heliothis virescens. On the set-up: expressed in transfected cells; stably transformed tobacco plants, pES3/pES4 (A11). The source says: The methodology described below was used to produce four different stable Tobacco vectors. The method involves three steps: • 1. pbluescript SK HindIII/EcoRI vector was ligated to either GRE6-4635SCaMVGUSNOS HindIII/EcoRI (from p221.10GRE6) or GRE6-6035SCaMVGUSNOS HindIII/EcoRI (from p221.9GRE6) resulting in plasmid pSK-46 and pSK-60. • 2. This step involves the addition of the chimeric receptor (35SGRHEcRNOS or 35SGRVP16HEcRNOS) to pSK-60 or pSK-46. Thus a pSK-60 (or pSK-46) XbaI vector was ligated with either the 3.4 kb 35SGRHEcRNOS XbaI or the 3.0 kb 35SGRVP16HEcRNOS XbaI DNA fragment to produce pSKES1 (pSKGRE6-6035SCaMVGUSNOS-35SGRHEcRNOS), pSKES2 (pSKGRE6-4635 SCaMVGUSNOS-35 SGRHEcRNOS), pSKES3 (pSKGRE6-6035SCaMVGUSNOS-35SGRVP16HEcRNOS) and pSKES4 (pSKGRE6-4635SCaMVGUSNOS-35SGRVP16HEcRNOS). • 3. Transfer from pBluescript based vectors to binary vectors. […] The DNA of the recombinant was characterised by restriction mapping and the sequence of the junctions determined. […]
Chain of chimeric glucocorticoid VP16/Heliothis ecdysone receptor (P04150+O18473 fused with the stated changes): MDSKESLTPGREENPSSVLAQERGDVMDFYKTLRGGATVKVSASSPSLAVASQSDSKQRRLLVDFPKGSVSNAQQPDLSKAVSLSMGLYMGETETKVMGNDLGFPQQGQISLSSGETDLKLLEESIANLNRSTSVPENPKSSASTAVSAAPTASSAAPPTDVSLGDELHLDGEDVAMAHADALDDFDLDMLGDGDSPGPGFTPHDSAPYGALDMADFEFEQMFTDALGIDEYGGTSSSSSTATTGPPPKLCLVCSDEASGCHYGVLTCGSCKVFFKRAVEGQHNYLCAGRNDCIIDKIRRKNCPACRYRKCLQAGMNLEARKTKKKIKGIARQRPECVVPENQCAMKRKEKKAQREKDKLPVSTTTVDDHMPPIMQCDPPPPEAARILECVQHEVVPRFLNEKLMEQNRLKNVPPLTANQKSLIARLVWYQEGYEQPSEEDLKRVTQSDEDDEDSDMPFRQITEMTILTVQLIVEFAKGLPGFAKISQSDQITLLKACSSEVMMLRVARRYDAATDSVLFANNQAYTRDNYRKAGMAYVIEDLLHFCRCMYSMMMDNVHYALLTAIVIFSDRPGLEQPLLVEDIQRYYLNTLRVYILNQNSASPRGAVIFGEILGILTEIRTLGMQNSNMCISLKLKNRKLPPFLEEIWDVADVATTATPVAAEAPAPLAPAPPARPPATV

As to `CCc1ccc(C(=O)NN(C(=O)c2cc(C)cc(C)c2)C(C)(C)C)cc1` [RH5992, 3,5-dimethylbenzoic acid 1-1(1,1-dimethylethyl)-2(4-ethylbenzoyl)hydrazide], the “chemical induced reporter gene activity” value in assay [1] is listed as “significant chemical induced reporter gene activity”. Also, in assay [2], the “GUS levels relative to transgenic plants containing non-VP16 vectors pES1 and pES2” value is “elevated GUS levels”.

Source of the values: US7183061B2, “Method of expressing Heliothis ecdysone receptor fusion protein” (Syngenta Limited, priority 1996, dated 2007).
